Laboratory results from patent publication US10676720B2, “Combinational use of mechanical manipulation and programin derivatives to increase Oct4, Sox2, Nanog or c-Myc expression in fibroblasts” (The Chinese University of Hong Kong, priority 2014, dated 2020).
Several values for one entry are separate records, joined by “and”; a condition that tells them apart may be missing. Equal entries are not always repeated. Where two headings read alike, the source gives them in different places.

Key:
[1] = system: Oct4, Sox2 and Nanog expression in embryoid-like cell bodies of CD34+ mouse fibroblasts; experiment: qPCR of pluripotent gene expression in embryoid-like bodies of mouse tail fibroblasts; format: cell-based; details: for Oct4, Sox2 and Nanog expression (qPCR, FIG. 5): embryoid-like cell bodies of CD34+ mouse fibroblasts; for Oct4, Sox2 and Nanog expression (qPCR, FIG. 5) / Oct4, Sox2 and Nanog expression (qPCR, FIG. 4): vs untreated bodies and monolayer; for Oct4, Sox2 and Nanog expression (qPCR, FIG. 4): embryoid-like cell bodies treated with 5 μm
Experimental: Materials required: Culture medium, supplemented with 10% FBS, 1% PS in DMEM (Invitrogen); Mouse ESC medium, supplemented with 1×B27 (Invitrogen), 1,000 U/mL Mouse Leukemia Inhibitory Factor (LIF) in DMEM/F12 culture medium (Invitrogen); Programin (frozen stock dissolved in DMSO); Working concentration=1-5 μM; Sterile 35 mm non-adhesive culture dish (SPL; 11035).
1. Source mouse tail fibroblasts (passage 2-6 and in log phase of growth). Trypsinize the fibroblasts using standard protocols to obtain a suspension of the cells in culture medium.
2. Seed the fibroblasts or other somatic cells onto a sterile 35 mm non-adhesive culture dish at density of 1×10^5-1×10^6 cells/cm^2 in 3 mL of culture medium.
4. Gently pipette the culture media to prevent the cells from adhering to culture dish surface. Two sessions per day, 2 min for each session, must be performed. A standard 1 mL pipette and plastic tip was used for pipetting the cultures. The pipetting has to done very slowly (approximately 0.5-1 mL/second generates sufficient force to detach cells from non-adhesive culture dish surface).
1. The cells would start to aggregate into embryoid-like bodies after day 1. These bodies will grow in numbers and size during the period of culture.
2. Gently pipette the culture media to prevent the embryoid-like cell bodies from attaching on culture dish surface.
3. Add 1 mL of fresh culture medium.
1. Collect cell suspension and pellet cells by centrifugation at 800 rpm for 5 min. […] Wash cell once with mouse ESC medium and Programin (1-5 μM) or programin derivatives.
2. Pellet the embryoid-like bodies again and re-suspend them in 3 mL mouse ESC medium and Programin or derivatives thereof.
3. Seed the embryoid-like cell bodies onto a sterile 35 mm non-adhesive culture dish.
4. Perform daily pipetting twice in a day to prevent the embryoid-like cell bodies from sticking to the culture dish.
5. Add 1 mL of fresh mouse ESC medium on day 5 (day 2 post-Programin treatment).
2. Harvest the embryoid-like cell bodies for qPCR analysis to validate expression of pluripotent genes: Oct4, Sox2 and Nanog expression. In addition, expression of other key stem cell-associated genes.

[2] = system: Oct4, Sox2, KLF4, c-Myc and Nanog expression in HUCPV cells; details: HUCPV cells as a monolayer, 0-5 μM for 30 hours
[3] = system: Oct4, Sox2, KLF4, c-Myc and Nanog expression in HUCPV cells; details: HUCPV embryoid-like bodies
Experimental: Materials required: HUCPV medium, consisting of 15% ESQ-FBS (Invitrogen) and 1% PS in MEM/F12 (Invitrogen), Essential 6 (Invitrogen) supplemented with 100 ng/mL basic fibroblast growth factor (bFGF) (Invitrogen), Programin or derivatives thereof (frozen stock dissolved in DMSO); Working concentration=1-5 μM; Sterile non-adhesive 24-well culture plate (SPL; 32024).
Primary human umbilical cord peri-vascular (HUCPV) cells were maintained in HUCPV culture medium and passaged by trypsinization. Only HUCPV cells below cell passage 6 were used.
HUCPV cultures are trypsinize and dissociate into single cells.
The dissociated HUCPV cells are re-suspend as 3×10^5 cells in 600 μL of HUCPV medium and seeded into each well of a non-adhesive 24-well culture plate.
The cells are incubated at 37° C. and 5% CO2 inside a cell incubator.
On following day, until the end of experiment, the cells were pipetted twice a day to prevent cells attaching onto culture plates which caused the HUCPV cells to aggregate into embryoid-like cell bodies.
200 μL of fresh HUCPV medium were added to the cultures, every 2 days. […]
Thirty hours after Programin treatment, the Programin treated embryoid-like cell bodies were harvested for qPCR analysis to validate expression of the pluripotent genes: Oct4, Sox2 and Nanog. Other key stem cells-associate genes were also analyzed.

[4] = system: Programin-treated embryoid-like cell bodies
Experimental: Programin-treated embryoid-like cell bodies (1×10^6 cells/10 cm^2) were maintained as a suspension culture in DMEM/F12, 1000 U/mL LIF and 1×B27 on non-adhesive culture dishes for 4 days. The embryoid-like cell bodies were then transferred to culture dishes coated with 0.1% gelatin (FIG. 9A). 10 μM Wnt agonist (Cat #681665, Calbiochem) was added to the culture medium (DMEM/F12, 1000U/mL LIF and 1×B27).

[5] = system: CD34+ fibroblasts grown on adhesive culture dishes; details: 5 μM for 3 days
Text: Tail fibroblasts extracted from the tail of Oct4-EGFP transgenic mice and stained with CD34 (FIG. 2). The cells were sorted by flow cytometry for only those expressing the surface marker CD34.

[6] = system: Oct4, Nanog, Sox2, c-Myc and KLF4 expression in human skin fibroblasts; details: 5 μM, 4 days
Experimental: Materials required: Fibroblast medium, supplemented with 15% FBS, 1% non-essential amino acids, 1% PS in Eagle's MEM medium (Invitrogen), human ESC medium, supplemented with 20% knockout serum replacement (Invitrogen), 2 mM L-glutamine, 0.1 mM non-essential amino acids, 0.1 mM mercaptoethanol, 10 ng/mL fibroblast growth factor-basic (bFGF), 1% PS in DMEM/F12 (Invitrogen), Programin or derivatives thereof (frozen stock dissolved in DMSO); Working concentration=5 μM, and sterile 35 mm non-adhesive culture dish (SPL; 11035).
Primary human skin fibroblasts were cultured in fibroblast medium and passaged by trypsinization. Passage 5 fibroblasts were used for experimentation.
After dissociating the cultures into single cells with trypsin, 2×10^6 cells were resuspended in 3 mL fibroblast medium in non-adhesive 35 mm dish and maintained in 37° C. incubator with 5% CO2.
Several hours later, aggregates were formed. Gently breakup excessively large aggregates by pipetting.
The next day, compact aggregates were formed. Again gentry breakup aggregates into smaller size (100-120 μm diameter) by pipetting.
Three days after cell aggregate/embryoid-like cell body formation, change the medium to human ESC medium supplemented with 5 μM Programin or derivatives thereof.
Replenish medium with fresh Programin or derivatives thereof 2 days after. […]

[7] = system: Oct4-EGFP expression in CD34+ fibroblasts from the tail of an Oct4-EGFP transgenic mouse; details: embryoid-like cell bodies, 5 μM, 24, 48 and 69 hours
Text: 1. Harvest the embryoid-like cell bodies for PI and Hoechst staining for confocal analysis. The presence of green fluorescence and Hoechst staining in cells indicate the presence of live PIP cells expressing Oct4-EGFP.
CD34^+ fibroblasts harvested from the tail of an Oct4-EGFP transgenic mouse were mechanically pipetted and maintained on non-adhesive culture plates so that the cells became aggregated to form embryoid-like bodies (FIG. 3A). The embryoid-like bodies in this study were stained with PI dye to determine the presence of dead cells (red arrows) and Hoechst dye for the presence of live cells (blue arrows) (FIGS. 3A-3D).

[8] = system: Programin treated embryoid-like cell bodies; details: treated embryoid-like bodies on 0.1% gelatin, B27 medium, after 3 days, more obvious after 7 days
Text: Programin treated embryoid-like cell bodies (1×10^6 cells/10 cm^2) were maintained as a suspension culture in DMEM/F12, 1000U/mL LIF and 1×B27 on non-adhesive culture dishes for 4 days. The embryoid-like cell bodies were then transferred to culture dishes coated with 0.1% gelatin (FIG. 10A).

## Oc1ncnc2[nH]ncc12 [Derivative 237]
[1]
  Oct4, Sox2 and Nanog expression (qPCR, FIG. 5): significantly increased

## Nc1nc2nc[nH]c2c(=S)[nH]1 [Derivative 400]
[1]
  Oct4, Sox2 and Nanog expression (qPCR, FIG. 5): significantly increased

## S=c1[nH]cnc2nc[nH]c12 [Derivative 594]
[1]
  Oct4, Sox2 and Nanog expression (qPCR, FIG. 5): significantly increased

## Nc1ncnc2nc[nH]c12 [Derivative 668]
[1]
  Oct4, Sox2 and Nanog expression (qPCR, FIG. 5): significantly increased

## Clc1nc(N2CCN(c3ccccc3)CC2)c2[nH]cnc2n1 [Derivative 957]
[1]
  Oct4, Sox2 and Nanog expression (qPCR, FIG. 5): significantly increased

## Clc1nc(-n2cccn2)c2nc[nH]c2n1 [Derivative 958]
[1]
  Oct4, Sox2 and Nanog expression (qPCR, FIG. 5): significantly increased

## Cc1cc(C)n(-c2nc(Cl)nc3[nH]cnc23)n1 [Derivative 959]
[1]
  Oct4, Sox2 and Nanog expression (qPCR, FIG. 5): significantly increased

## c1nc2nc(Nc3ccc(N4CCOCC4)cc3)nc(NC3CCCCC3)c2[nH]1 [programin, 2-(4-Morpholinoanilino)-6-cyclohexylamino-purine]
[1]; aggregates/embryoid-like bodies of fibroblasts, compared to controls (unaggregated, untreated cells)
  increase in Oct4, Sox2 and Nanog expression: 25-200 fold and 20-200 fold
[1]; compared to that of the initial fibroblast
  increase in expression of E-cadherin: 5 fold
[1]; embryoid-like cell bodies exposed to 2-5 μM for 30 hours, compared to an untreated control fibroblast
  increase in Oct4, Sox2 and Nanog expression: 25-200 fold
[1]
  Oct4, Sox2 and Nanog expression (qPCR, FIG. 5): higher
  Oct4, Sox2 and Nanog expression (qPCR, FIG. 4): highest
[1]; listed as Programin
  Oct4, Sox2 and Nanog expression (qPCR, FIG. 4): significantly enhanced
[1]; mouse somatic cells, takes 7 days to accomplish
  reprogramming efficiency: approximately 20%
[2]
  Oct4, Sox2, KLF4, c-Myc and Nanog expression (qPCR): did not activate
[3]; 1-5 μM for 30 hours, vs untreated embryoid-like body controls (0 μM)
  Oct4, Sox2, KLF4, c-Myc and Nanog expression (qPCR): significantly enhanced
[3]; 30 hours, 1-5 μM tested
  concentration that induced the highest level of Oct4, Sox2, Klf4 and Nanog: 4 µM
[4]; following exposure to the Wnt agonist
  fate of treated cells that were not aggregated: underwent cell death
[4]; treated embryoid-like bodies on 0.1% gelatin with 10 μM Wnt agonist, after 2-3 days
  formation of bone-like nodules: Bone-like nodules were evident
[4]; treated embryoid-like bodies with 10 μM Wnt agonist
  Alizen Red s staining of the nodules: osteocytes
[5]
  Oct4 expression: did not express Oct4
  cell survival: died
[6]; human skin fibroblast embryoid-like bodies, vs vehicle and monolayer
  expression of Oct4, Nanog, Sox2, c-Myc and KLF4 (qPCR): higher levels
[6]; human skin fibroblasts in a monolayer
  expression of pluripotency-associated genes Oct4, Sox2, Nanog, KLF4 and c-Myc: not in a monolayer
[7]
  Oct4-EGFP expression (confocal microscope): detectable
[7]; listed as Programin
  Oct4-EGFP expression (confocal microscope): expressed Oct4-EGFP
[8]
  formation of neurons: Neurons were evident
